Assay results as given in PubChem BioAssay AID1645871.

Conditions: pampa; pH 5.0; 30.0 min; 50.0 µM

First: Cc1ccccc1C(=O)NC1CCN(c2ccc3nnc(C4CC4)n3n2)CC1
Second: COc1ccccc1C(=O)NC1CCCc2c1[nH]c1c(Cl)cccc21 (stereo not drawn)
The Papp of the first is 17-fold lower: 35 ×10⁻⁶ cm/s for the first, 607 ×10⁻⁶ cm/s for the second.

Compared with O=C(COc1ccccc1)NCC(c1cccs1)S(=O)(=O)c1ccc(Cl)cc1 (stereo not drawn), CCOc1ccc(S(=O)(=O)NCc2cccnc2)cc1NC(=O)c1ccccc1F is 3.1-fold lower in Papp: 855 ×10⁻⁶ cm/s for the first, 278 ×10⁻⁶ cm/s for the second.

Compared with Clc1ccc(C2(c3ccc(-c4cn[nH]c4)cc3)CCNCC2)cc1, c1ccc(-c2cn[nH]c2)cc1 is 14-fold higher in Papp: 3.6 ×10⁻⁶ cm/s for the first, 51.2 ×10⁻⁶ cm/s for the second.

Compared with COc1cccc(N2CCN(c3ncc4c(n3)CCN(Cc3ccc(Br)cc3)C4)CC2)c1, COc1ccccc1Nc1ccnc(N2CCN(C(=O)c3ccc(C)cc3)CC2)n1 is higher in Papp: 939 ×10⁻⁶ cm/s for the first, over 1000 ×10⁻⁶ cm/s for the second.

Going from COc1ccc(OC)c(-n2c3c(cc(-c4nc(-c5ccc(Cl)cc5)cs4)c2=O)C(=O)CC(C)(C)C3)c1 to COc1ccc(Cn2c(C(=O)O)c(CNCc3cccc(OC)c3)c3ccc(C)cc32)cc1, the Papp rises from 331 ×10⁻⁶ cm/s to 931 ×10⁻⁶ cm/s (2.8-fold).

CNC(=O)c1ccc(C)c(-n2c(C)cc(OCc3ccc(F)cc3F)c(Br)c2=O)c1 and Cc1c(-c2cccc(NC(=O)c3ccc(F)c(F)c3)c2)nc2ncccn12 are within 1.5-fold of each other in Papp: 627 ×10⁻⁶ cm/s for the first, 710 ×10⁻⁶ cm/s for the second.

Compared with CC(C)(C)CN1CCNc2cc(Nc3ccccc3)ncc2C1, CN(C)c1ccc(CN2CCNc3cc(Nc4ccccc4)ncc3C2)cc1 is 2.5-fold higher in Papp: 42.2 ×10⁻⁶ cm/s for the first, 107 ×10⁻⁶ cm/s for the second.

Compared with CN(C)CCOC1=Cc2ccccc2Sc2ccc(Cl)cc21, Cc1cccc(N(C)c2nc3ccccc3c3nnc(C)n23)c1 is higher in Papp: 857 ×10⁻⁶ cm/s for the first, over 1000 ×10⁻⁶ cm/s for the second.

COCCNC(=O)c1ccc(-c2ncc3cnc(-c4cccc(F)c4)cn23)cc1 and O=C(NCCCN1CCCC1=O)c1ccc(-c2ncc3cnc(-c4ccccc4)cn23)cc1 are within 1.5-fold of each other in Papp: 283 ×10⁻⁶ cm/s for the first, 193 ×10⁻⁶ cm/s for the second.

Going from Cc1c(Cl)cccc1NC(=O)CNS(=O)(=O)c1cccs1 to O=C(Nc1cccnc1)c1cccs1, the Papp falls from 458 ×10⁻⁶ cm/s to 181 ×10⁻⁶ cm/s (2.5-fold).

First: O=C(NC[C@H]1Cn2c(-c3ccc(Cl)cc3)cnc2CO1)C1CCCC1
Second: NC1CCN(C(=O)C2CCCN(c3nc(-c4ccccc4)nc4c3CCC4)C2)CC1 (stereo not drawn)
The Papp of the first is 2.6-fold higher: 19.4 ×10⁻⁶ cm/s for the first, 7.56 ×10⁻⁶ cm/s for the second.

Compared with COc1cc2c(c(OC)c1OC)-c1ccc(SC)c(=O)cc1C(N)CC2 (stereo not drawn), COc1cc(Cl)c(C)cc1Nc1c2c(nc3ccccc13)CCC2 is higher in Papp: 55 ×10⁻⁶ cm/s for the first, over 1000 ×10⁻⁶ cm/s for the second.

Compared with CSc1nnc2c3ccccc3n(CCc3ccccc3)c2n1, Cn1c(=O)c2c(-c3ccc(Br)cc3)n(CCc3ccccc3)cc2n(C)c1=O is lower in Papp: over 1000 ×10⁻⁶ cm/s for the first, 591 ×10⁻⁶ cm/s for the second.

Compared with COc1ccc(-c2nc3c(c(SCC(=O)Nc4ccc(C(=O)O)cc4)n2)Cc2ccccc2O3)cc1, COc1ccc(-c2noc(CSc3nnc(Cc4ccccc4)n3-c3ccc(F)cc3)n2)cc1 is higher in Papp: 36.6 ×10⁻⁶ cm/s for the first, over 1000 ×10⁻⁶ cm/s for the second.

Going from CC(=O)N[C@H]1CN(C2CCN(c3ccc(F)cc3C)CC2)C[C@@H]1C1CC1 to CN(C)C(=O)NC1CCC(CCN2CCN(c3cccc(Cl)c3Cl)CC2)CC1 (stereo not drawn), the Papp rises from 144 ×10⁻⁶ cm/s to 350 ×10⁻⁶ cm/s (2.4-fold).

First: CC1=C(C(=O)Nc2nc3ccccc3s2)C(c2[nH]ncc2Cl)N=C(Nc2nc3ccccc3o2)N1 (stereo not drawn)
Second: COC(=O)C1=C(C)NC(C)=C(C(=O)O[C@@H]2CCCN(Cc3ccccc3)C2)[C@@H]1c1cccc([N+](=O)[O-])c1
The Papp of the first is lower: 15.6 ×10⁻⁶ cm/s for the first, over 1000 ×10⁻⁶ cm/s for the second.

Going from FC(F)(F)c1ccc(CN2CCNc3cc(Nc4ccccc4)ncc3C2)cc1 to CC(C)c1ccc(CC(=O)N2CCCc3ncc(C(=O)Nc4cccnc4)cc32)cc1, the Papp rises from 21.1 ×10⁻⁶ cm/s to 932 ×10⁻⁶ cm/s (44-fold).

First: COc1ccccc1N1CCN(CCN(C(=O)c2ccc(F)cc2)c2ccccn2)CC1
Second: CCN(CC)C(=O)N1c2ccccc2C=Cc2ccccc21
The Papp of the first is lower: 73 ×10⁻⁶ cm/s for the first, over 1000 ×10⁻⁶ cm/s for the second.

First: CCOC(=O)c1ccc(NC(=O)c2sc3nc4c(cc3c2N)N2CCC4CC2)cc1
Second: NC(=O)Nc1cc(-c2ccc(CN3CCOCC3)cc2)sc1C(N)=O
The Papp of the first is 610-fold higher: 720 ×10⁻⁶ cm/s for the first, 1.19 ×10⁻⁶ cm/s for the second.

Going from Cn1nnnc1Sc1ncnc2scc(-c3cc4ccccc4o3)c12 to COc1ccc(C)cc1Nc1c2c(nc3ccccc13)CCC2, the Papp rises from 52.8 ×10⁻⁶ cm/s to 293 ×10⁻⁶ cm/s (5.5-fold).

First: COc1ccc(-n2nc3c(N4CCCC(C(=O)NCCc5ccc(C)cc5)C4)nnc(C)c3c2C)cc1 (stereo not drawn)
Second: COc1ccc(-n2nc(C)c([C@@H]3C=C[C@@H](NCc4cccc(Cl)c4)C3)c2C)cc1
The Papp of the first is 1.7-fold lower: 467 ×10⁻⁶ cm/s for the first, 773 ×10⁻⁶ cm/s for the second.

First: CCc1cc(Cl)c(OC)c(C(=O)NC[C@@H]2CCCN2CC)c1O
Second: CCC(CC)c1cc([C@H]2CN3CC[C@H]2C[C@@H]3CNC(=O)Cc2cccs2)nc(-c2ccncc2)n1
The Papp of the first is 2.8-fold higher: 899 ×10⁻⁶ cm/s for the first, 320 ×10⁻⁶ cm/s for the second.

First: Cc1cccc(S(=O)(=O)c2cn(Cc3ccccc3)c3cc(N4CCCC(C)C4)c(F)cc3c2=O)c1 (stereo not drawn)
Second: CN1CCC(N(Cc2cccs2)c2ccccc2)CC1
The Papp of the first is 3.3-fold higher: 832 ×10⁻⁶ cm/s for the first, 254 ×10⁻⁶ cm/s for the second.

Compared with CCOc1ccc(OCC)c(NC(=O)C(NS(=O)(=O)c2ccc(Br)s2)c2ccccc2)c1 (stereo not drawn), COc1ccc(NC(=O)c2ccc[nH]2)cc1S(=O)(=O)Nc1ccc(Br)cc1 is higher in Papp: 637 ×10⁻⁶ cm/s for the first, over 1000 ×10⁻⁶ cm/s for the second.

First: CC(C)Oc1cccc(C2CC(=O)Nc3cc4c(cc32)OCO4)c1 (stereo not drawn)
Second: O=C(NC1CCCc2c1[nH]c1c(Cl)cccc21)c1ccc2c(c1)OCO2 (stereo not drawn)
The Papp of the first is 4.1-fold higher: 785 ×10⁻⁶ cm/s for the first, 190 ×10⁻⁶ cm/s for the second.

Going from Cc1nc(-c2ccccc2)cc([C@H]2CN3CC[C@H]2C[C@@H]3CNC2CCOCC2)n1 to CC(C)(C)c1ccc(S(=O)(=O)N2CCC(c3ccncc3)CC2)cc1, the Papp rises from 12.9 ×10⁻⁶ cm/s to 754 ×10⁻⁶ cm/s (58-fold).

Going from Cc1ccc2oc3c(c(=O)c2c1)C(c1ccc(O)cc1)N(CCCN(C)C)C3=O (stereo not drawn) to CCOC(=O)c1ccc(N2C(=O)c3n[nH]c(-c4ccco4)c3C2c2ccc(C)cc2)cc1 (stereo not drawn), the Papp rises from 3.9 ×10⁻⁶ cm/s to 231 ×10⁻⁶ cm/s (59-fold).

Compared with COc1ccc(-c2cc(-c3cccc(NC(C)=O)c3)cn3cncc23)cn1, O=C(Nc1cccc(OC(F)(F)F)c1)c1cc(-c2ccc[nH]2)n[nH]1 is 2.3-fold higher in Papp: 45.4 ×10⁻⁶ cm/s for the first, 103 ×10⁻⁶ cm/s for the second.

First: CCCCn1cc2c(c1-c1ccc(Br)cc1)c(=O)n(C)c(=O)n2C
Second: CN(C)c1ccc(-c2cc[nH]c(=O)c2N)cc1
The Papp of the first is higher: over 1000 ×10⁻⁶ cm/s for the first, 171 ×10⁻⁶ cm/s for the second.
